We go through two compounds from patent US20230295058A1, “SYSTEMS AND METHODS FOR GENERATION OF HYPERPOLARIZED COMPOUNDS USING PARAHYDROGEN” (NVISION IMAGING TECHNOLOGIES GMBH, priority 2020, published 2023).

For one data set, the system named is variety of cell lines. Briefly: cytotoxicity of clean fumarate samples following precipitation. The class given is cell-based. To be noted: precipitated, washed and redissolved samples, even at high concentrations (FIG. 10). The method, then:
FIG. 10 depicts the results of cytotoxicity experiments performed using samples of precipitated, washed and redissolved sodium fumarate generated in accordance with disclosed embodiments
The clean fumarate samples following precipitation were tested for cytotoxicity using a variety of cell lines. FIG. 10 depicts the result of the cell line experiments.

For data set [1] the following is noted: cited from earlier work.

Molecules are shown by their SMILES. Where two headings read alike, the source gives them in different places.

Take `O=C([O-])/C=C/[13C](=O)[O-].[Na+].[Na+]` [sodium fumarate, sodium fumarate-1-^13C]: the cytotoxicity entry in the data set on variety of cell lines is listed as “No toxicity was visible”. For `CC(=O)O` [acetic acid], the “maximal mole fraction in n-heptane” value was 0.935 in data set [1] (14.8° C.) and 0.02 in data set [1] (−29.2° C.).
